As usually defined, the IC50 is the midpoint of a concentration-inhibition curve.

Chain of FAS (P49327 whole entry): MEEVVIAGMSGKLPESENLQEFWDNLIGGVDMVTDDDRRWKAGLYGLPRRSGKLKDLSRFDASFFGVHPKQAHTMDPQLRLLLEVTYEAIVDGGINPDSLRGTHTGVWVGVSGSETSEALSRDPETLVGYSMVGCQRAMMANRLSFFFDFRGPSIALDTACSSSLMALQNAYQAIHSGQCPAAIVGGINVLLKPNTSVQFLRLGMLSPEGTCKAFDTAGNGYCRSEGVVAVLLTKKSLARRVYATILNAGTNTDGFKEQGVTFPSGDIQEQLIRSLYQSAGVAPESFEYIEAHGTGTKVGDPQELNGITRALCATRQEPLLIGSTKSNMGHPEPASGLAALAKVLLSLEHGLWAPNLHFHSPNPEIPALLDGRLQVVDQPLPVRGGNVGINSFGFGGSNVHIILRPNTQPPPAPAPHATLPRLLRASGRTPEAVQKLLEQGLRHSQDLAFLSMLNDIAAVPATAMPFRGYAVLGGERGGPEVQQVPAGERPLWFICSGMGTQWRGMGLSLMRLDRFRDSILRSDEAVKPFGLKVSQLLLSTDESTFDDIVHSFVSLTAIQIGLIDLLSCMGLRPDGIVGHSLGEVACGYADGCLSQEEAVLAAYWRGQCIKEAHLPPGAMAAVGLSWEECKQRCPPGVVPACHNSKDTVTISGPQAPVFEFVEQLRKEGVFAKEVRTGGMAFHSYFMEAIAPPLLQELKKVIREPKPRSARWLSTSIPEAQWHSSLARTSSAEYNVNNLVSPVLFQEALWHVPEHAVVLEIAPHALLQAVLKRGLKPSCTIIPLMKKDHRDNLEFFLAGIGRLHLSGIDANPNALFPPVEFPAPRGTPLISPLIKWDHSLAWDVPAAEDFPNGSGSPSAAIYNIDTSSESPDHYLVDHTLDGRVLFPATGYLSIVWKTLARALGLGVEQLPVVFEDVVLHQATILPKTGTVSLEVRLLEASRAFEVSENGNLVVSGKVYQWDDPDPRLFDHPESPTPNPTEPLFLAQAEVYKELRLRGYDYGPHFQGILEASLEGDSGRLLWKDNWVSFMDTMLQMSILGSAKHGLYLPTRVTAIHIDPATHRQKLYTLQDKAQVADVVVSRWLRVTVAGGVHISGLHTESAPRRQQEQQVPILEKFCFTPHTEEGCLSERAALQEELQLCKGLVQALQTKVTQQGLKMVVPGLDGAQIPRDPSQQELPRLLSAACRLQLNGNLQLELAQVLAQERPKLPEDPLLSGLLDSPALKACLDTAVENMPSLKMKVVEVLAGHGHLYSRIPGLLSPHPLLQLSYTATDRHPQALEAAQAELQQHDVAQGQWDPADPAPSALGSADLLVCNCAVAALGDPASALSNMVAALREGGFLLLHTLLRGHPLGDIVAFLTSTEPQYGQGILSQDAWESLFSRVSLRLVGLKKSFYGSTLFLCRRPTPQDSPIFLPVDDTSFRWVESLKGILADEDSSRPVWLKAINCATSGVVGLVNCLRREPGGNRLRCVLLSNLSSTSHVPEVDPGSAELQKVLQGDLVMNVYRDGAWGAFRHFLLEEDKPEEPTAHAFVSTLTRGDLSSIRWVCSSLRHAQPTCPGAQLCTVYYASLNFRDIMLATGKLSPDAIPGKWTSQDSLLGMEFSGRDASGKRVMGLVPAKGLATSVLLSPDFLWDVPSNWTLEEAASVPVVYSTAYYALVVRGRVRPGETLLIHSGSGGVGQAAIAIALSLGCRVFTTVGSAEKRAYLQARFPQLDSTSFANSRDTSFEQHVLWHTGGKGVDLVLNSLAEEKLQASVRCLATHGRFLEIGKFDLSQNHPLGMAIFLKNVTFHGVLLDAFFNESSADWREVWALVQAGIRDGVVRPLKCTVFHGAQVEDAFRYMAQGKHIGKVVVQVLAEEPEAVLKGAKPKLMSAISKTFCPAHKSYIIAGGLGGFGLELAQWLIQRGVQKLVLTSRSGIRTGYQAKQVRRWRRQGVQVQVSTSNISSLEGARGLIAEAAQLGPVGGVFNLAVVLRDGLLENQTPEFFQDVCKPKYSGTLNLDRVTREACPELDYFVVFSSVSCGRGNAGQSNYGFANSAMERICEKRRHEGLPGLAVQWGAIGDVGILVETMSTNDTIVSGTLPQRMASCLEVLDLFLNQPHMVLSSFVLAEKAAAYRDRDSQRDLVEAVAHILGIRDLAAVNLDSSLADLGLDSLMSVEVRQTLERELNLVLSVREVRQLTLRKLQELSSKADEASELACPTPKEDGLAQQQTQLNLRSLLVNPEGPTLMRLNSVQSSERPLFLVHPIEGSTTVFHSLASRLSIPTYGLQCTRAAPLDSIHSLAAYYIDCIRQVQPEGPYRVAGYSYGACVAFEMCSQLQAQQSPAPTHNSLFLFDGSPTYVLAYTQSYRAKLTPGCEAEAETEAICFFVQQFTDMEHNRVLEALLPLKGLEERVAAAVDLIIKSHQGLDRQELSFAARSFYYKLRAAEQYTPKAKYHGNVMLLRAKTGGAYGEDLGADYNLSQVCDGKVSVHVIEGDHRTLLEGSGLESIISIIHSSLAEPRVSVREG

The assay deals with FAS (Homo sapiens, UniProt P49327). The experiment in a line: FAS Assay (Assay #1 residual NADPH detection or Assay #2 CoA detection with CPM dye). The assay is classed as biochemical. The conditions noted are these: FAS inhibition, measured through Assay #1 or Assay #2; one experiment or average of multiple experiments. The protocol:
FAS activity was measured through one of the two following assays.
Inhibition of FAS activity can be measured based on the detection of residual NADPH substrate after the FAS assay is quenched. This assay is run as a 10 μL endpoint assay in 384-well format, where the reaction contains 20 μM malonyl-CoA, 2 μM acetyl-CoA, 30 μM NADPH and 40 nM FAS in 50 mM sodium phosphate, pH 7.0. The assay is run by sequentially dispensing 5 μl of a malonyl-CoA solution, then enzyme solution (containing the acetyl-CoA, and NADPH) into a black, low volume assay plate (Greiner 784076) pre-dispensed with 100 nL compound solutions in DMSO. The reaction is incubated at ambient temperature for 60 minutes, then quenched with 5 μL of a developing solution composed of 90 μM resazurin, 0.3 IU/ml diaphorase in 50 mM sodium phosphate, pH 7.0. The developed reaction is read on a Molecular Devices Analyst or Acquest (or equivalent) plate reader using a 530 nm excitation wavelength filter, a 580 nm emission filter, and 561 nm dichroic filter. The test compounds are prepared in neat DMSO at a concentration of 10 mM. For inhibition curves, compounds are diluted using a three fold serial dilution and tested at 11 concentrations (e.g. 25 μM-0.42 nM). Curves are analysed using ActivityBase and XLfit, and results are expressed as pIC50 values.
Inhibition of FAS can also be quantified based on the detection of the CoA products with a thio-reactive coumarin dye. This assay is run as a 10 μL endpoint assay in 384-well format, where the reaction contains 20 μM malonyl-CoA, 20 μM acetyl-CoA, 40 μM NADPH and 2 nM FAS in 50 mM sodium phosphate, pH 7.0, and 0.04% Tween-20. The assay is run by adding 5 μL enzyme solution to a black, low volume assay plate (Greiner 784076) pre-dispensed with 100 nl compound solutions in DMSO. After 30 minutes, 5 μL substrate is added, and the reaction incubated at ambient temperature for an additional 60 minutes. The reaction is then quenched with 10 μL of 6M guanidine-HCl containing 50 μM CPM (7-diethylamino-3-(4′-maleimidylphenyl)-4-methylcoumarin (CPM; thio-reactive dye), and incubated for 30 minutes. The plate is read on an Envision (PerkinElmer) or equivalent plate reader using a 380 nm excitation wavelength filter, and a 486 nm emission filter. Data fitting and compound preparations are done as described above.
For the compound `COc1ccc(-c2ccc(-c3nnnn3C[C@@H]3CCN(C(=O)C4CC4)C3)cc2)c(Cl)c1` [Example 5, 5-[2′-chloro-4′-(methyloxy)-4-biphenylyl]-1-{[(3R)-1-(cyclopropylcarbonyl)-3-pyrrolidinyl]methyl}-1H-tetrazole], the half-inhibitory concentration (IC50) came to 752 nM.
For the compound `O=C(C1CC1)N1CC[C@@H](Cn2nncc2-c2ccc(-c3ccc4[nH]ncc4c3)cc2)C1` [Example 11, 5-[4-(1-{[(3R)-1-(cyclopropylcarbonyl)-3-pyrrolidinyl]methyl}-1H-1,2,3-triazol-5-yl)phenyl]-1H-indazole], inhibition was half-maximal at 40 nM (IC50).
In the case of `Cc1nnc(-c2ccc(-c3ccc(Cl)cc3Cl)cc2)n1C[C@@H]1CCN(C(=O)C2CC2)C1` [Example 15, 4-{[(3S)-1-(cyclopropylcarbonyl)-3-pyrrolidinyl]methyl}-3-(2′,4′-dichloro-4-biphenylyl)-5-methyl-4H-1,2,4-triazole] it was 596 nM; in that of `O=C(C1CC1)N1CC[C@@H](Cn2ccnc2-c2ccc(-c3ccccc3)cc2)C1` [Example 26, 2-(4-biphenylyl)-1-{[(3S)-1-(cyclopropylcarbonyl)-3-pyrrolidinyl]methyl}-1H-imidazole], 190 nM; in that of `O=C(C1CC1)N1CC[C@@H](Cn2ccnc2-c2ccc(-c3ccc4occc4c3)cc2)C1` [Example 34, 2-[4-(1-benzofuran-5-yl)phenyl]-1-{[(3S)-1-(cyclopropylcarbonyl)-3-pyrrolidinyl]methyl}-1H-imidazole], 23 nM.
In turn, `Cc1nc(-c2ccc(-c3ccc(F)cc3)cc2)n(CC2CCN(C(=O)C3CC3)C2)c1C` (stereo not drawn) [Example 41, 1-{[1-(cyclopropylcarbonyl)-3-pyrrolidinyl]methyl}-2-(4′-fluoro-4-biphenylyl)-4,5-dimethyl-1H-imidazole] had a concentration for half-maximal inhibition (IC50) of 1520 nM.
In the case of `Cc1cnc(-c2ccc(-c3ccc(Cl)cc3Cl)cc2)n1CC1CCN(C(=O)C2CC2)C1` (stereo not drawn) [Example 54, 1-{[1-(cyclopropylcarbonyl)-3-pyrrolidinyl]methyl}-2-(2′,4′-dichloro-4-biphenylyl)-5-methyl-1H-imidazole], it took 602 nM to reach half-maximal inhibition (IC50).
In the case of `O=C(C1CC1)N1CC[C@@H](Cn2cnnc2-c2ccc(-c3cccc4[nH]ncc34)cc2)C1` [Example 67, 4-[4-(4-{[(3S)-1-(cyclopropylcarbonyl)-3-pyrrolidinyl]methyl}-4H-1,2,4-triazol-3-yl)phenyl]-1H-indazole] it was 13 nM; in that of `Cn1ccc2cc(-c3ccc(-c4nncn4C[C@@H]4CCN(C(=O)C5CC5)C4)cc3)cnc21` [Example 73, 5-[4-(4-{[(3S)-1-(cyclopropylcarbonyl)-3-pyrrolidinyl]methyl}-4H-1,2,4-triazol-3-yl)phenyl]-1-methyl-1H-pyrrolo[2,3-b]pyridine], 251 nM.
As for `O=C(C1CC1)N1CC[C@@H](Cn2cnnc2-c2ccc(-c3cccc(-c4cc[nH]n4)c3)cc2F)C1` [Example 87, 4-{[(3S)-1-(cyclopropylcarbonyl)-3-pyrrolidinyl]methyl}-3-[3-fluoro-3′-(1H-pyrazol-5-yl)-4-biphenylyl]-4H-1,2,4-triazole], the IC50 was found to be 63 nM.
For `O=C(C1CC1)N1CC(Cn2cnnc2-c2ccc(-c3ccc4ncccc4c3)cc2F)C1` [Example 96, 6-[4-(4-{[1-(cyclopropylcarbonyl)-3-azetidinyl]methyl}-4H-1,2,4-triazol-3-yl)-3-fluorophenyl]quinoline], the 50% inhibitory concentration (IC50) was found to be 631 nM.
Compound `COc1cc(-c2ccc(-c3nncn3C[C@@H]3CCN(C(=O)C4CC4)C3)c(F)c2)ccc1C` [Example 98, 4-{[(3S)-1-(cyclopropylcarbonyl)-3-pyrrolidinyl]methyl}-3-[3-fluoro-4′-methyl-3′-(methyloxy)-4-biphenylyl]-4H-1,2,4-triazole] showed a concentration for half-maximal inhibition (IC50) of 200 nM.

Source of the values: patent US20130196971A1, “FATTY ACID SYNTHASE INHIBITORS” (priority 2010, published 2013).
